# Assay results taken from PubChem BioAssay (NCI).
#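 96-well plates; 48 h exposure; 5 concentrations. Endpoints by linear interpolation between flanking doses. Not reached: highest tested concentration assigned. GI50: concentration for 50% inhibition of growth. TGI denotes the concentration required for complete inhibition of growth.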
# Experiments:
# Test in all cases: inhibition of tumour cell growth, NCI panel, 48 h
# [1] = test system: IGROV1 ovarian
# [2] = test system: PC-3 prostate
# [3] = test system: SR leukemia
# [4] = test system: SF-539 CNS
# [5] = test system: MDA-MB-231 breast
# [6] = test system: HCT-15 colon
# [7] = test system: LOX IMVI melanoma
# [8] = test system: U251 CNS
# [9] = test system: T-47D breast
# [10] = test system: SK-OV-3 ovarian
# [11] = test system: SK-MEL-28 melanoma
# [12] = test system: 786-0 renal
# [13] = test system: KM12 colon
# [14] = test system: HCC-2998 colon
# [15] = test system: BT-549 breast
# [16] = test system: NCI-H460 lung
# [17] = test system: A549 NSCLC
# [18] = test system: RXF 393 renal
# [19] = test system: NCI/ADR-RES ovarian
# [20] = test system: OVCAR-8 ovarian
# [21] = test system: CCRF-CEM leukemia
# [22] = test system: NCI-H23 lung
# [23] = test system: M14 melanoma
# [24] = test system: OVCAR-5 ovarian
# [25] = test system: HL-60(TB) leukemia
# [26] = test system: MOLT-4 leukemia
# [27] = test system: HS 578T breast
# [28] = test system: OVCAR-4 ovarian
# [29] = test system: SN12C renal
# [30] = test system: HCT-116 colon
# [31] = test system: K-562 leukemia
# [32] = test system: A498 renal
# [33] = test system: HT29 colon
# [34] = test system: SW-620 colon
# [35] = test system: MCF7 breast
# [36] = test system: HOP-92 NSCLC
# [37] = test system: UACC-62 melanoma
# [38] = test system: SK-MEL-2 melanoma
# [39] = test system: ACHN renal
# [40] = test system: HOP-62 NSCLC
# [41] = test system: SNB-75 CNS
# [42] = test system: DU-145 prostate
# [43] = test system: NCI-H522 lung
# [44] = test system: UACC-257 melanoma
# [45] = test system: TK-10 renal
# [46] = test system: NCI-H226 lung
# [47] = test system: RPMI-8226 leukemia
# [48] = test system: UO-31 renal
# [49] = test system: EKVX NSCLC
# [50] = test system: SNB-19 CNS
# [51] = test system: SK-MEL-5 melanoma
# [52] = test system: SF-295 CNS
# [53] = test system: MALME-3M melanoma
# [54] = test system: MDA-MB-435
# [55] = test system: SF-268 CNS
# [56] = test system: COLO 205 colon
smiles,measurement,setting,value
Oc1ccc(CSc2nnc(-c3ccncc3)o2)c2cccnc12,GI50,[1],3.33 µM
same,TGI,[1],> 100 µM
same,GI50,[2],0.626 µM
same,TGI,[2],9.34 µM
same,GI50,[3],2.21 µM
same,TGI,[3],> 100 µM
same,GI50,[4],2.18 µM
same,TGI,[4],> 100 µM
same,GI50,[5],1.89 µM
same,TGI,[5],4.87 µM
same,GI50,[6],2.74 µM
same,TGI,[6],> 100 µM
same,GI50,[7],0.864 µM
same,TGI,[7],> 100 µM
same,GI50,[8],0.494 µM
same,TGI,[8],> 100 µM
same,GI50,[9],3.08 µM
same,TGI,[9],> 100 µM
same,GI50,[10],3.11 µM
same,TGI,[10],9.81 µM
same,GI50,[11],4.37 µM
same,TGI,[11],> 100 µM
same,GI50,[12],3.81 µM
same,TGI,[12],70.2 µM
same,GI50,[13],3.9 µM
same,TGI,[13],> 100 µM
same,GI50,[14],3.38 µM
same,TGI,[14],> 100 µM
same,GI50,[15],1.71 µM
same,TGI,[15],> 100 µM
same,GI50,[16],0.397 µM
same,TGI,[16],> 100 µM
same,GI50,[17],0.767 µM
same,TGI,[17],> 100 µM
same,GI50,[18],2.41 µM
same,TGI,[18],> 100 µM
same,GI50,[19],3.95 µM
same,TGI,[19],> 100 µM
same,GI50,[20],0.62 µM
same,TGI,[20],> 100 µM
same,GI50,[21],2.53 µM
same,TGI,[21],> 100 µM
same,GI50,[22],0.951 µM
same,TGI,[22],> 100 µM
same,GI50,[23],2.11 µM
same,TGI,[23],> 100 µM
same,GI50,[24],3.54 µM
same,TGI,[24],> 100 µM
same,GI50,[25],2.9 µM
same,TGI,[25],50.7 µM
same,GI50,[26],3.71 µM
same,TGI,[26],> 100 µM
same,GI50,[27],0.751 µM
same,TGI,[27],58.7 µM
same,GI50,[28],3.19 µM
same,TGI,[28],> 100 µM
same,GI50,[29],0.619 µM
same,TGI,[29],6.13 µM
same,GI50,[30],0.68 µM
same,TGI,[30],> 100 µM
same,GI50,[31],0.622 µM
same,TGI,[31],> 100 µM
same,GI50,[32],2.64 µM
same,TGI,[32],9.52 µM
same,GI50,[33],3.46 µM
same,TGI,[33],> 100 µM
same,GI50,[34],1.37 µM
same,TGI,[34],> 100 µM
same,GI50,[35],0.403 µM
same,TGI,[35],> 100 µM
same,GI50,[36],0.412 µM
same,TGI,[36],2.73 µM
same,GI50,[37],2.87 µM
same,TGI,[37],> 100 µM
same,GI50,[38],2.11 µM
same,TGI,[38],7.66 µM
same,GI50,[39],2.28 µM
same,TGI,[39],8.31 µM
same,GI50,[40],2.37 µM
same,TGI,[40],> 100 µM
same,GI50,[41],1.52 µM
same,TGI,[41],25.5 µM
same,GI50,[42],0.779 µM
same,TGI,[42],> 100 µM
same,GI50,[43],0.558 µM
same,TGI,[43],> 100 µM
same,GI50,[44],2.61 µM
same,TGI,[44],8.38 µM
same,GI50,[45],3.36 µM
same,TGI,[45],> 100 µM
same,GI50,[46],3.6 µM
same,TGI,[46],> 100 µM
same,GI50,[47],0.524 µM
same,TGI,[47],4.02 µM
same,GI50,[48],1.83 µM
same,TGI,[48],> 100 µM
same,GI50,[49],2.74 µM
same,TGI,[49],> 100 µM
same,GI50,[50],1.47 µM
same,TGI,[50],> 100 µM
same,GI50,[51],1.03 µM
same,TGI,[51],2.63 µM
same,GI50,[52],1.75 µM
same,TGI,[52],8.32 µM
same,GI50,[53],2.03 µM
same,TGI,[53],6.88 µM
same,GI50,[54],0.613 µM
same,TGI,[54],> 100 µM
same,GI50,[55],2.18 µM
same,TGI,[55],> 100 µM
same,GI50,[56],4.32 µM
same,TGI,[56],> 100 µM
